What was measured:
[1] = molecular target: T1, Mitogen-activated protein kinase kinase kinase 5 (Homo sapiens, UniProt Q99683); assay: Inhibition of ASK1 (unknown origin) assessed as reduction in JNK phosphorylation by cell based assay
T1 sequence (Q99683 whole entry): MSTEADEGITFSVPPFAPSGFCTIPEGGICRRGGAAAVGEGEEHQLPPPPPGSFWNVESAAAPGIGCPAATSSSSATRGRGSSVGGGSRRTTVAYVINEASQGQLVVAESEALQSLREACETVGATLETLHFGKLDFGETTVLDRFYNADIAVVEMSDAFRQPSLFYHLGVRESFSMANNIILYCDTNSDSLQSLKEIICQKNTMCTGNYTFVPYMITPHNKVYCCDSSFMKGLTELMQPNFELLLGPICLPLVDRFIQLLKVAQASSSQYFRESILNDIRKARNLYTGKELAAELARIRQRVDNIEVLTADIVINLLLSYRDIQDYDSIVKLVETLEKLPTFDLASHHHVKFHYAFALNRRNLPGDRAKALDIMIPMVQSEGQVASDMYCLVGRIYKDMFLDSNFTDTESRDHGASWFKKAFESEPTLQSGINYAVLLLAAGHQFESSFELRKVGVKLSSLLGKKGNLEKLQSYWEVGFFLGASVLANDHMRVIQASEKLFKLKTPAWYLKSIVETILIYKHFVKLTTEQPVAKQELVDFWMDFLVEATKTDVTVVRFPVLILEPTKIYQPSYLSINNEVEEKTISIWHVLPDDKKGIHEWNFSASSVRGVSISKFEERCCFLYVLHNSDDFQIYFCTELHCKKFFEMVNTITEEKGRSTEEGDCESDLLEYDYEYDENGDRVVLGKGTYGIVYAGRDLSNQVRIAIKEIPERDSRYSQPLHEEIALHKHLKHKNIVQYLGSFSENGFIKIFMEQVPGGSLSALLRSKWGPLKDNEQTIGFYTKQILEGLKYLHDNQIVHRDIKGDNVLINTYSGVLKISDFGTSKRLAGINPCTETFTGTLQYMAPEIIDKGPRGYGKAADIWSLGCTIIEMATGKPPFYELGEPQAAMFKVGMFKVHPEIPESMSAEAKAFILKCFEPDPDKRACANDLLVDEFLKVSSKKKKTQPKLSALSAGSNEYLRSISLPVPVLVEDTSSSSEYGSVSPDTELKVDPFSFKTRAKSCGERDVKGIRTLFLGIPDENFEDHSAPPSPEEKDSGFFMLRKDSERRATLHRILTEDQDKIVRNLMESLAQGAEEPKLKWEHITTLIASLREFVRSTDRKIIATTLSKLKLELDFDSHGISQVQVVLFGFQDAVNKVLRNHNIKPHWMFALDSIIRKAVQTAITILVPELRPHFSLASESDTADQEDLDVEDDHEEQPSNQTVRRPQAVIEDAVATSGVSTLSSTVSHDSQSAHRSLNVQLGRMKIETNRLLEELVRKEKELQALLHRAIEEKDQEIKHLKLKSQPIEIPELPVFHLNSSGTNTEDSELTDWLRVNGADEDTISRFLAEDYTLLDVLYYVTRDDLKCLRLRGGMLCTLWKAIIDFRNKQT

[2] = molecular target: T1, Mitogen-activated protein kinase kinase kinase 5; assay: Inhibition of ASK1 (unknown origin) using biotin-MBP as substrate after 20 mins by TR-FRET assay
[3] = molecular target: T2, Mitogen-activated protein kinase kinase kinase 5 (Homo sapiens) (UniProt Q99683); assay: Inhibition of ASK1 (unknown origin) at 500 uM using biotin-MBP as substrate after 20 mins by TR-FRET assay relative to control
T2 sequence (whole entry): T1 sequence (Q99683 whole entry)

[4] = molecular target: Cyclin-dependent kinase 2 (Homo sapiens, UniProt P24941); assay: Inhibition of CDK2 (unknown origin)
[5] = molecular target: Epidermal growth factor receptor (Homo sapiens, UniProt P00533); assay: Inhibition of recombinant human GST-tagged EGFR cytoplasmic domain (668 to 1210 residues) expressed in baculovirus expression system
[6] = molecular target: T3, Ephrin type-A receptor 3 (Homo sapiens, UniProt P29320); assay: Inhibition of recombinant human His-tagged EPHA3 cytoplasmic domain (569 to 976 residues) expressed in baculovirus expression system
T3 sequence (P29320 whole entry): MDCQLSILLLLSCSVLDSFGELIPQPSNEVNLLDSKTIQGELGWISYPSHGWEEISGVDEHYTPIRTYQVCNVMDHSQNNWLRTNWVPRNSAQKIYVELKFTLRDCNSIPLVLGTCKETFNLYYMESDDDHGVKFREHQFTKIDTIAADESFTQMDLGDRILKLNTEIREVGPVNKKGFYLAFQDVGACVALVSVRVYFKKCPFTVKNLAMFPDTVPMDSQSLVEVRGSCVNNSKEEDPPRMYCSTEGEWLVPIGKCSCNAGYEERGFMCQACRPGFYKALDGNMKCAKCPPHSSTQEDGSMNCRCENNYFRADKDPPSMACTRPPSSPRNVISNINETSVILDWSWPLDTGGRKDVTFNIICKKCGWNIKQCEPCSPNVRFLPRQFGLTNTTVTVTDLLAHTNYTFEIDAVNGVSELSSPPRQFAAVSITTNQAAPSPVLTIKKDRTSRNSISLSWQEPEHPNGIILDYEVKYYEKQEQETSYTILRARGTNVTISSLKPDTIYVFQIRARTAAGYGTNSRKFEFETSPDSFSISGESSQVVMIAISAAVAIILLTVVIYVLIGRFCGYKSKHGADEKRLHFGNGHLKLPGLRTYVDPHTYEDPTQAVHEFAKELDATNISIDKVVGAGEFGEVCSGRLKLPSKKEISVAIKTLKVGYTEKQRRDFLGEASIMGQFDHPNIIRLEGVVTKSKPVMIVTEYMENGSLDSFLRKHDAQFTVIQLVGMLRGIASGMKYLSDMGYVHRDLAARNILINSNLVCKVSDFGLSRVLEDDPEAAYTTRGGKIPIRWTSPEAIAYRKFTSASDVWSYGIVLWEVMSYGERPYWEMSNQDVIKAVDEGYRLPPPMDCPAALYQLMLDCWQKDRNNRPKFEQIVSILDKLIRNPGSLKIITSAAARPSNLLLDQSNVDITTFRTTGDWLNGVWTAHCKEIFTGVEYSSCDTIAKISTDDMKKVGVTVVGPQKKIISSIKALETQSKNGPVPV

[7] = molecular target: Receptor tyrosine-protein kinase erbB-4 (Homo sapiens, UniProt Q15303); assay: Inhibition of recombinant human N-terminal GST-tagged ERBB4 cytoplasmic domain (708 to 993 residues) expressed in baculovirus expression system
[8] = molecular target: Glycogen synthase kinase-3 beta (Homo sapiens, UniProt P49841); assay: Inhibition of recombinant full length human His-tagged GSK3B expressed in baculovirus expression system
[9] = molecular target: T4, Tyrosine-protein kinase ITK/TSK (Homo sapiens, UniProt Q08881); assay: Inhibition of recombinant full length human GST-tagged ITK expressed in baculovirus expression system
T4 sequence (Q08881 whole entry): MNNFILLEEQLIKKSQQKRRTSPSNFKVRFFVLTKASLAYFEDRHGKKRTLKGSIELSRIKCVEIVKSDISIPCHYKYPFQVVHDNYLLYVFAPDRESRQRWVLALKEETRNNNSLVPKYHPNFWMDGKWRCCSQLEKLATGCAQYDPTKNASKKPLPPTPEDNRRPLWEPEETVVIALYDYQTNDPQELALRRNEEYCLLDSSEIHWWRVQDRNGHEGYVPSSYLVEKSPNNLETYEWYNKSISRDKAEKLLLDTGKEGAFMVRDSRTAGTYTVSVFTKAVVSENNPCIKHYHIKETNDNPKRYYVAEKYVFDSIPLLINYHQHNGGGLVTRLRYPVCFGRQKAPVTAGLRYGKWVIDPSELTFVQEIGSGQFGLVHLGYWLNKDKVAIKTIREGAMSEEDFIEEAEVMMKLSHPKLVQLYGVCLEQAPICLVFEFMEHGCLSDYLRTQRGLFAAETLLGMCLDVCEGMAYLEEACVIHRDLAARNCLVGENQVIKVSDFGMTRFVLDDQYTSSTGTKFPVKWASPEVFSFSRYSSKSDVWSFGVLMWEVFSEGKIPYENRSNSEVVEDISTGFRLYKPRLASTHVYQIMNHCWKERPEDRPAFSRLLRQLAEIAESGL

[10] = molecular target: T5, Tyrosine-protein kinase Mer (Homo sapiens, UniProt Q12866); assay: Inhibition of recombinant human GST-tagged MER cytoplasmic domain expressed in baculovirus expression system
T5 sequence (Q12866 whole entry): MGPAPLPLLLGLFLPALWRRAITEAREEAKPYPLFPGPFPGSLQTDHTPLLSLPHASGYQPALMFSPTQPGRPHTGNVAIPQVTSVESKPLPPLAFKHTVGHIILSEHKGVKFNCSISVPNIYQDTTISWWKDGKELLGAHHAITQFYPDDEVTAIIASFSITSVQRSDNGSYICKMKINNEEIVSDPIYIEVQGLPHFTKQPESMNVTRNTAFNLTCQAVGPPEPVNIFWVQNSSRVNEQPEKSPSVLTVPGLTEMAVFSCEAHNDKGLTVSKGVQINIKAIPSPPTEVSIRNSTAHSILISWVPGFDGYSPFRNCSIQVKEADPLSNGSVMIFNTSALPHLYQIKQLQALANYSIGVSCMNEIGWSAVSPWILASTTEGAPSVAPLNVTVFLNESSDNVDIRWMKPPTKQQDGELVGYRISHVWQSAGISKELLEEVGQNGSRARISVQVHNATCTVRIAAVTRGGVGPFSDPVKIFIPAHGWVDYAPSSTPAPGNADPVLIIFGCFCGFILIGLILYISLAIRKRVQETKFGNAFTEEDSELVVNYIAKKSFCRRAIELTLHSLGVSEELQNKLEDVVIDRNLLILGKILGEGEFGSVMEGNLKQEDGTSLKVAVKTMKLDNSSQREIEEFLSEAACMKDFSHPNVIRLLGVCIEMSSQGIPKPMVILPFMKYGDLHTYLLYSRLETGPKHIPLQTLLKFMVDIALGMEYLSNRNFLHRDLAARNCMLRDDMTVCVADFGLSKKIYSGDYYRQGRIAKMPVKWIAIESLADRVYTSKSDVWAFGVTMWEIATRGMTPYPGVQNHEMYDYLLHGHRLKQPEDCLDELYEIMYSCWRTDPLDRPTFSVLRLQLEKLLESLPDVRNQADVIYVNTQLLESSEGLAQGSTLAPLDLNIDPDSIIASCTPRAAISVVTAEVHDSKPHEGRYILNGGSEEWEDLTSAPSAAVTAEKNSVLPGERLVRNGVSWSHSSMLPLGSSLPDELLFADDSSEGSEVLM

[11] = molecular target: MAP kinase p38 (Homo sapiens, UniProt O15264+Q15759+Q16539+P53778); assay: Inhibition of MAPK p38 (unknown origin)
[12] = molecular target: 5'-AMP-activated protein kinase catalytic subunit alpha-1 (Homo sapiens, UniProt Q13131); assay: Inhibition of PRKAA1 (unknown origin)
[13] = molecular target: Proto-oncogene tyrosine-protein kinase receptor Ret (Homo sapiens, UniProt P07949); assay: Inhibition of recombinant human GST-tagged RET cytoplasmic domain expressed in baculovirus expression system
[14] = molecular target: Rho-associated protein kinase 1 (Homo sapiens, UniProt Q13464); assay: Inhibition of recombinant human GST-tagged ROCK1 catalytic domain expressed in baculovirus expression system
[15] = molecular target: Macrophage-stimulating protein receptor (Homo sapiens, UniProt Q04912); assay: Inhibition of recombinant human GST-tagged RON cytoplasmic domain expressed in baculovirus expression system

Chain of Glycogen synthase kinase-3 beta (P49841 whole entry): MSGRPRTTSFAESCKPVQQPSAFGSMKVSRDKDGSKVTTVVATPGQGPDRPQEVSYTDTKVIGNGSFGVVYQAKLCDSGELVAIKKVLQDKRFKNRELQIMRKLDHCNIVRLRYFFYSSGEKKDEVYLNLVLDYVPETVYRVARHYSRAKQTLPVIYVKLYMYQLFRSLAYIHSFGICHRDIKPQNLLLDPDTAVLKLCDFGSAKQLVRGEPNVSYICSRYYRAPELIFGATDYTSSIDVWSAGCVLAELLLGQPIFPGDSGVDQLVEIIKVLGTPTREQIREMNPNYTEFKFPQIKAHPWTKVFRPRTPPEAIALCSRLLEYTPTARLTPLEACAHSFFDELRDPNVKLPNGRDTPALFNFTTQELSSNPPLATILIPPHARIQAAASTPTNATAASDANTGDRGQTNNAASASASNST
Chain of Rho-associated protein kinase 1 (Q13464 whole entry, the tested form may be a part): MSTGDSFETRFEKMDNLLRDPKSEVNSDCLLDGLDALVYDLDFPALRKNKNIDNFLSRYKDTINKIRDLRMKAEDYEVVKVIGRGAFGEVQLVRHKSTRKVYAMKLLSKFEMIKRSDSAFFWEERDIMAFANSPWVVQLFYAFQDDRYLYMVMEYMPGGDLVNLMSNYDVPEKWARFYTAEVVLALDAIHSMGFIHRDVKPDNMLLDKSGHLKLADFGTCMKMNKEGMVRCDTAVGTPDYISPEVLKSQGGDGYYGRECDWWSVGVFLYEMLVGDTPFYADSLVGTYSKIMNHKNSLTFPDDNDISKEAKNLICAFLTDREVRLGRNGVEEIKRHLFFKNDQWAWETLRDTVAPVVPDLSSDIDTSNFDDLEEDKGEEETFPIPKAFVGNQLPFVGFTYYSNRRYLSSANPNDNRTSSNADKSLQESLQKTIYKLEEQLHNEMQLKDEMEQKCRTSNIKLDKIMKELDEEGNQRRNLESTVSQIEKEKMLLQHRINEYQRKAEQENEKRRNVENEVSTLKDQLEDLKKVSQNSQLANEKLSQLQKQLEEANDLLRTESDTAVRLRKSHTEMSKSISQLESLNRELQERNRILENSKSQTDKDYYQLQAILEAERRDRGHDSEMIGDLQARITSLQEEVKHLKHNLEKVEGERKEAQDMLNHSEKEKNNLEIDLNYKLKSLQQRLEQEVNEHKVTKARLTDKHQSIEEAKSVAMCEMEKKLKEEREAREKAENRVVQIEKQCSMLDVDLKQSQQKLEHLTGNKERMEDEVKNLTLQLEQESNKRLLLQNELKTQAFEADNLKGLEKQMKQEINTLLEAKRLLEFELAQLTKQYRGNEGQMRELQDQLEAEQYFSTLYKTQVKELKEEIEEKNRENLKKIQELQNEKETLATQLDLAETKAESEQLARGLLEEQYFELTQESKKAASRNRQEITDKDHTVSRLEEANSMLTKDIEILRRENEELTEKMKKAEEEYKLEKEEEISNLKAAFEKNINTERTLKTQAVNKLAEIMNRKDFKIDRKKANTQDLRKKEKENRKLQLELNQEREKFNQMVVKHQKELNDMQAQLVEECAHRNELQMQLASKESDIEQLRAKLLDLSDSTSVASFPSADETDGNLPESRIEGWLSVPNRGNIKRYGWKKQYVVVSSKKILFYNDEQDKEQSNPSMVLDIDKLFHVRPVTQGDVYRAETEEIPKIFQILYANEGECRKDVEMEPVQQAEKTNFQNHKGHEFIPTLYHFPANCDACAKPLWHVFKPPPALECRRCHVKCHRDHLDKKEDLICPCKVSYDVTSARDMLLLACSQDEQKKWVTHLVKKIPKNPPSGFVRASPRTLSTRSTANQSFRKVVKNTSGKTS
Chain of 5'-AMP-activated protein kinase catalytic subunit alpha-1 (Q13131 whole entry, the tested form may be a part): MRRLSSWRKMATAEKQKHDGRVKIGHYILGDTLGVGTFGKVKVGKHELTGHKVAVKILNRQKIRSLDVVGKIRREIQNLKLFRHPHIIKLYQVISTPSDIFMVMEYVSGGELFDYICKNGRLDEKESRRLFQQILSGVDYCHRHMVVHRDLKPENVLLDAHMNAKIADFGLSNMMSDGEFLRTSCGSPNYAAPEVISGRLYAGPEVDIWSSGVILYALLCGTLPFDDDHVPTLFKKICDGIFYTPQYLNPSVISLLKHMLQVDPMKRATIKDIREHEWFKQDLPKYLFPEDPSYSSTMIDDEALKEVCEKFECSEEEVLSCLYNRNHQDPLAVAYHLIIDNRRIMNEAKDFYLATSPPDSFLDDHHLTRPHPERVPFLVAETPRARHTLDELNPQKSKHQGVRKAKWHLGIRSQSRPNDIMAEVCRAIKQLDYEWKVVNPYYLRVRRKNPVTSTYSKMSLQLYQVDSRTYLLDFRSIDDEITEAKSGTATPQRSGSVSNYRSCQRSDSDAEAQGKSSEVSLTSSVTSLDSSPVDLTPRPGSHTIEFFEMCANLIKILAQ
Chain of Proto-oncogene tyrosine-protein kinase receptor Ret (P07949 whole entry, the tested form may be a part): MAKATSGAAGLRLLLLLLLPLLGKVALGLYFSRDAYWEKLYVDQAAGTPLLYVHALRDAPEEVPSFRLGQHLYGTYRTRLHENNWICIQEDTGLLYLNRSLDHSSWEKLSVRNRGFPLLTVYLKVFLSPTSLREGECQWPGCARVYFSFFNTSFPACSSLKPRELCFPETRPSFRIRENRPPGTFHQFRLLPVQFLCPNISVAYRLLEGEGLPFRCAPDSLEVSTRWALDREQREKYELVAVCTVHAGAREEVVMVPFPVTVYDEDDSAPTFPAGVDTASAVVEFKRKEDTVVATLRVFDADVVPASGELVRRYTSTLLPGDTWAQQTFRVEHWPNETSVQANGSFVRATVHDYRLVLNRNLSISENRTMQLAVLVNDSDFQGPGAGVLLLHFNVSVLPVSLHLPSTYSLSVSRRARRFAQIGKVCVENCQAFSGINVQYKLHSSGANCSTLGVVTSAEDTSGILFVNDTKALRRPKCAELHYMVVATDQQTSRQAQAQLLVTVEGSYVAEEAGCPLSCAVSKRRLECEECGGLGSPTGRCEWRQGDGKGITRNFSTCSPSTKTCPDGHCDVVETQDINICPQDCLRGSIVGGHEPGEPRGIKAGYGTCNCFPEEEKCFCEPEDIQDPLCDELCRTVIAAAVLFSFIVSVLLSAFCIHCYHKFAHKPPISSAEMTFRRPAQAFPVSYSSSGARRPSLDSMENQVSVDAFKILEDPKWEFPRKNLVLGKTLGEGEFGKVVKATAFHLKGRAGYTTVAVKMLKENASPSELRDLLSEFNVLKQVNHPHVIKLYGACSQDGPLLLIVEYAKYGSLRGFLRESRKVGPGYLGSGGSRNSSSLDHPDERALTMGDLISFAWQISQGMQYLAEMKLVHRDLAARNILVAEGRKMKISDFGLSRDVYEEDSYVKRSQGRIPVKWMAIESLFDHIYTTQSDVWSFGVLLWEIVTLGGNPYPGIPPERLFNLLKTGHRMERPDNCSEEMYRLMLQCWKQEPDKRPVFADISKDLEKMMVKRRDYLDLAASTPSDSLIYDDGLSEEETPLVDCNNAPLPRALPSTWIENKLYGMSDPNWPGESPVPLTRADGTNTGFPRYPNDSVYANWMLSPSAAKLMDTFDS
Chain of Epidermal growth factor receptor (P00533 whole entry, the tested form may be a part): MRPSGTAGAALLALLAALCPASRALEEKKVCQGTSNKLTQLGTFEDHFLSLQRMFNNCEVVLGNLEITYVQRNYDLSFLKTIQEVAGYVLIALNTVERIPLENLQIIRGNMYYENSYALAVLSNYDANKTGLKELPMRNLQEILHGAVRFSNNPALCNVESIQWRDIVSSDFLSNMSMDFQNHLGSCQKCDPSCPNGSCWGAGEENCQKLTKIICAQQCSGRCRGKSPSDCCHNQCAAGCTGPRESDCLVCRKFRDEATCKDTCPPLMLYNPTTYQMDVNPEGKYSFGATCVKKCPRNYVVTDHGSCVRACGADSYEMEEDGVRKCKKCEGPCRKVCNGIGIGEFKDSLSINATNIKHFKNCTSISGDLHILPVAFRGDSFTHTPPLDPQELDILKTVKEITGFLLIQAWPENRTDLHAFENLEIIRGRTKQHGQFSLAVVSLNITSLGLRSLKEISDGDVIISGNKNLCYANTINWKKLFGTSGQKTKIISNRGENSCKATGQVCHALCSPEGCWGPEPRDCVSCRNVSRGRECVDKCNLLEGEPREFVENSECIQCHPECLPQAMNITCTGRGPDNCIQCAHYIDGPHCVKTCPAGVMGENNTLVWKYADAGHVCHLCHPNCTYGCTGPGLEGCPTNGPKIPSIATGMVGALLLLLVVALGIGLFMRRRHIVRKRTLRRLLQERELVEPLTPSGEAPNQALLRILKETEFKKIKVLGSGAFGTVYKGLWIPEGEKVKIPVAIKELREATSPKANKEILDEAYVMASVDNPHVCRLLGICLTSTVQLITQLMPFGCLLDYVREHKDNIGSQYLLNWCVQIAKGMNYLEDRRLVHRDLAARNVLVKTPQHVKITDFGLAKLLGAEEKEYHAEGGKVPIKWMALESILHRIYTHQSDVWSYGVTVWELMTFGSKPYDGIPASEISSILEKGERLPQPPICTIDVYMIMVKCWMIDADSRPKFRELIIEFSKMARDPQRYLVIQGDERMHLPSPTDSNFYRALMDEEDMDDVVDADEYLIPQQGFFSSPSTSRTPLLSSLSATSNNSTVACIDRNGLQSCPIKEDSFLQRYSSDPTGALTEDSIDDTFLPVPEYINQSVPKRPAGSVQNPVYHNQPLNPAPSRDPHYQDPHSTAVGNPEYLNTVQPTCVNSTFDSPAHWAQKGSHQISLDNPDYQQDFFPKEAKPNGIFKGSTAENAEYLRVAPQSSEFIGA

## COCCCn1cc(NC(=O)c2csc(-c3nncn3C(C)C)n2)cn1
[1]
  EC50: 65 nM

## COCCNc1ccnc(NC(=O)c2csc(-c3nncn3C(C)C)n2)c1
[1]
  EC50: 99 nM

## CCn1cnc(NC(=O)c2cscn2)c1
[2]
  IC50: 100000 nM
[3]
  inhibition: 75%

## CCn1cc(NC(=O)c2csc(-c3nncn3C(C)C)n2)cn1
[1]
  EC50: 600 nM
[2]
  IC50: 600 nM

## CC(C)n1cnnc1-c1nc(C(=O)Nc2cnn(C3COC3)c2)cs1
[1]
  EC50: 130 nM

## CCn1cnc(NC(=O)c2ccco2)c1
[3]
  inhibition: 35%

## CC(C)n1cnnc1-c1nc(C(=O)Nc2ccccn2)cs1
[2]
  IC50: 400 nM

## Cc1cc(F)c(C(=O)Nc2ccccn2)cc1-n1cnc(C2CC2)c1
[2]
  IC50: 6000 nM

## CCn1cnc(NC(=O)c2ccccc2)c1
[3]
  inhibition: 40%

## CCn1cnc(NC(=O)c2ccoc2)c1
[2]
  IC50: 500000 nM
[3]
  inhibition: 51%

## Cc1ccc(C(=O)Nc2cccc(-c3nncn3C(C)C)n2)c(F)c1
[2]
  IC50: 55 nM

## CCn1cnc(NC(=O)C2CCC2)c1
[3]
  inhibition: < 10%

## COCCOc1ccnc(NC(=O)c2csc(-c3nncn3C(C)C)n2)c1
[1]
  EC50: 140 nM

## CC(C)(C)c1ccc(C(=O)Nc2cn3cc(-n4ccnc4)ccc3n2)cc1
[4]
  IC50: 155 nM
[5]
  IC50: > 20000 nM
[6]
  IC50: > 20000 nM
[7]
  IC50: > 20000 nM
[8]
  IC50: 832 nM
[9]
  IC50: 5500 nM
[10]
  IC50: 6460 nM
[11]
  pIC50: < 4.7
[12]
  IC50: 13800 nM
[13]
  IC50: 11500 nM
[14]
  IC50: 4900 nM
[15]
  IC50: > 20000 nM

From ChEMBL document CHEMBL4007491, “Structure-based drug design of novel ASK1 inhibitors using an integrated lead optimization strategy” (Bioorg Med Chem Lett, 2017)
